# Measured values reported in US5622725A, “Wound disinfection and repair” (Alcide Corporation, priority 1996, dated 1997).
# How the values were obtained:
# [1] = test system: Staphylococcus epidermidis biofilms; assay: Sterilization of S. epidermidis biofilms, minimal exposure time at 22° C. (supravital dye, confirmed by culture); format: cell-based; conditions: 22° C.
# Excerpt: This example compares and contrasts the cidal effectiveness of compositions of the invention with other disinfectants and antibiotics against Staphylococcus epidermidis biofilms, which are frequently observed on the surface of C.A.P.D. peritoneal catheters even in the absence of peritonitis or exit site infections.
# A strain of S. epidermidis with characteristic abundant slime production, and derived from a human source, is used to prepare the biofilms. The isolate is fully sensitive in the fluid phase to all commonly used antibiotics as assayed using routine test methods. Aliquots of the bacteria are frozen at -70° C. in 10% glycerol broth or propagated on 5% defibrinated horse blood agar. Standardized biofilms are formed on soda glass microscope slides or slides coated with Silastic® (the basic material of indwelling catheters; see Cecil's, cited above, on page 542), placed in Petri dishes containing 20 ml of tryptone soya broth (Oxoid Ltd., England), seeded with 10^4 cfu S. epidermidis and incubated for 18 hours at 37° C. Reproducible uniform and confluent S. epidermidis biofilms of minimal density are formed.
# Antibiotic activity against S. epidermidis biofilms are determined using a supravital dye which acts as an electron acceptor in coupled oxidative systems in biofilm bacteria. The method allows the bacteria to be examined undisturbed within the biofilm matrix in situ. Briefly stated, the biofilms are exposed to antibiotic solutions and incubated at […] for varying periods of time. Positive (viable, 1% peptone water) and negative (sterilized, 4% formol-peptone) controls are included in all experiments. After a designated exposure at 22° C. for varying periods of time between 15 seconds to 6 hours, the biofilms are rinsed twice in sterile water and allowed to drain. They are then placed in a flat agar medium incorporating substantive dyes and incubated at 37° C. for 4 hours, then 24 hours. Viability is assessed visually by a change in dye color and confirmed after 24 hours by mechanically scraping and subsequently culturing the biofilms. Sterilization is indicated by the absence of color changes and confirmed by culture of both intact and mechanically fragmented biofilms. Inhibition of growth is indicated by a lack of color change after a 4-hour incubation and confirmed by a positive color change by 24 hours.
# [2] = test system: peritoneal cavity; conditions: infused into the peritoneal cavity and other body cavities; per Ser. No. 08/133,465 and U.S. Pat. No. 5,252,343; cited from earlier work
# [3] = Free radical signal by electron spin resonance (ESR); conditions: One hundred-fold dilutions, within one minute after mixing
# Description: ClO2 (75 ppm) is generated by mixing 0.25% chlorite and 1.4% lactic acid. One hundred-fold dilutions are tested within one minute after mixing using electron paramagnetic spectroscopy (ESR) and a LKB luminometer.
# For the ESR assay, the chlorine dioxide solution is frozen in liquid nitrogen to -167° C. and electron spin resonance analyzed using a Varian E3 instrument.
# [4] = test system: lactobacilli, streptococci, coliforms, Klebsiella species, Enterobacter species, Bacteroides species, clostridia and eubacteria; assay: Broad-spectrum antimicrobial activity; format: cell-based; conditions: aerobic and anaerobic
# Excerpt: In one embodiment, the present invention is directed to the use of effective amounts of chlorine dioxide as a peritoneal cavity irrigant. The enteric organisms which enter the peritoneal cavity through contamination by gastrointestinal contact, whether by physical trauma or during surgery, are all susceptible to the cidal effects of chlorine dioxide, which is a broad-spectrum antimicrobial. […] However, as mentioned in the Introduction, addition of antibiotics to the irrigating solution has not provided any additional benefit (Hau and Nishikawa, cited above), and it is presumed that the peritoneal irrigation derives from its mechanical effect. The ineffectivenss of local antibiotic solutions has been surprising to researchers, since the antibiotics that have been used were capable of in vitro inhibition of the bacterial species present in the peritoneal cavity. It may be that the lack of effect was attributable to the brevity of contact of the antibiotic with the organisms, since usual flush times approximate five minutes or less in duration, which would be too short for significant cidal action to occur.
# [5] = test system: cows' udders; assay: Infusion into cows' udders, immune response; format: in vivo, cow; conditions: 350 ppm in buffered saline
# Excerpt: It is an advantage of the invention that solutions containing fairly significant levels of ClO2 are particularly well tolerated by tissues. […] ClO2 is capable of being reduced to lower oxidation states, such as chlorite and chloride, upon contact with organic materials, but is less reactive than, for example, hypochlorite, and a volume of ClO2 -containing saline is expected to retain significant antimicrobial activity when used to flush out organic debris from an incised area. Appropriate use levels of ClO2 will vary, depending on the amount of organic detritus in the site, but generally concentrations of about 5 to 250 ppm in approximately isotonic solution can be used with good effect.
# [6] = test system: polymorphonuclear leukocytes; assay: Chemotaxis, cell integrity (lactate dehydrogenase) and morphology of isolated polymorphonuclear leukocytes; format: cell-based; conditions: in vitro, ClO2 solution 3 to 300 ppm
# Excerpt: To test whether methods of the invention can control the inflammatory response, isolated polymorphonuclear leukocytes, which are among the first cells to be found at a wound or a site of potential infection, are studied with respect to their response to chlorine dioxide solutions and compared with a control containing ibuprofen, a known non-steroid anti-inflammatorycompound. The choice of in vitro assay is chemotaxis.
# Isolated polymorphonuclear leukocytes are studied with respect to their response to a ClO2 solution varying in concentration from 3 to 300 ppm and an ibuprofen control. Cellular response and integrity (chemotaxis)is assayed in vitro after incubating with both compounds by measuring lactate dehydrogenase activity and/or release concurrently with observing morphology using scanning electron microscopy and/or transmission electron microscopy.
# The results are graphically illustrated in FIGS. 1 to 3. The x-axis in the figures show dilutions of a 0.5 mg/ml ibuprofen solution, and chlorine dioxide solutions prepared by combining lactic acid with sodium chlorite and diluting to yield chlorine dioxide concentrations as follows: […], 1:10 is 60 ppm ClO2, 1:20 is 30 ppm ClO2, 1:50 is 12 ppm ClO2, 1:100 is 6 ppm ClO2, 1:150 is 4 ppm ClO2, and 1:200 is 3 ppm ClO2.
# A negative control is denoted by .smallcircle.. […]
compound,measurement,setting,value
"[O][Cl+][O-] [ClO2, chlorine dioxide]",Exposure Time (22° C.) for Film Sterilization,[1],5 s
same,inflammatory response on infusion,[2],without evoking the inflammatory response
same,free radical signal,[3],A strong free radical signal is generated
same,demonstrated activity against organisms,[4],"demonstrated activity against all relevant organisms, both aerobic and anaerobic"
same,safety of infusion / immune response,[5],safely infusable into cows' udders without stimulation of any immune response
same,effect on chemotaxis / quality and morphology of polymorphonuclear leukocytes,[6],control chemotaxis by affecting the quality and morphology of the associated polymorphonuclear leukocytes
same,effect on chemotaxis / quality and morphology of polymorphonuclear leukocytes,[6]; listed as ClO2 solution,affected both the quality and morphology of polymorphonuclear leukocytes
